Measured values: PubChem BioAssay AID256 (DTP/NCI, 2004)
Values joined by “and” are separate entries in the source; they are usually repeats but may differ in a detail not shown here. Identical values can stand only once. Inconclusive results and toxic doses are left out. Rule for the calls: active = survival T/C of 150% or more; inactive = T/C below 125% in these data.

System: CD2F1 mice, L1210 leukemia ip, survival T/C
Assay: NCI In Vivo Anticancer Drug Screen. Data for tumor model L1210 Leukemia (intraperitoneal) in CD2F1 (CDF1) mice
Conditions: endpoint: mean survival time, higher = longer survival
Summary of the method: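 In this screen, transplantable tumors were grown in mice given either the compound or its vehicle. Results were expressed as the treated measurement relative to the control measurement.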

[1] = dose: 100.0 mg/kg/injection, schedule: Q01DX009 (ip), vehicle: saline with Tween-80
[2] = dose: 200.0 mg/kg/injection, schedule: Q01DX009 (ip), vehicle: saline with Tween-80
[3] = dose: 400.0 mg/kg/injection, schedule: Q01DX009 (ip), vehicle: saline with Tween-80
[4] = dose: 100.0 mg/kg/injection, schedule: Q01DX001 (ip), vehicle: saline with Tween-80
[5] = dose: 200.0 mg/kg/injection, schedule: Q01DX001 (ip), vehicle: saline with Tween-80
[6] = dose: 400.0 mg/kg/injection, schedule: Q01DX001 (ip), vehicle: saline with Tween-80
[7] = dose: 100.0 mg/kg/injection, schedule: Q04DX003 (ip), vehicle: saline with Tween-80
[8] = dose: 200.0 mg/kg/injection, schedule: Q04DX003 (ip), vehicle: saline with Tween-80
[9] = dose: 400.0 mg/kg/injection, schedule: Q04DX003 (ip), vehicle: saline with Tween-80

Measured: T/C

CCOC(=O)CC1CCCCC1CC(=O)OCC (stereo not given)
inactive: dose: 37.5 mg/kg/injection, schedule: Q01DX009 (ip), vehicle: saline 95 % of control | dose: 75.0 mg/kg/injection, schedule: Q01DX009 (ip), vehicle: saline 98 % of control | dose: 75.0 mg/kg/injection, schedule: Q04DX003 (ip), vehicle: saline 97 % of control | dose: 150.0 mg/kg/injection, schedule: Q01DX009 (ip), vehicle: saline 100 % of control | dose: 150.0 mg/kg/injection, schedule: Q04DX003 (ip), vehicle: saline 103 % of control | dose: 300.0 mg/kg/injection, schedule: Q04DX003 (ip), vehicle: saline 101 % of control

CCOCc1cccc2ccccc12
inactive: [1] 98 % of control | [2] 102 % of control | [3] 94 % of control

CNC1CCCCCC1
inactive: dose: 75.0 mg/kg/injection, schedule: Q01DX001 (ip), vehicle: saline 101 % of control | dose: 150.0 mg/kg/injection, schedule: Q01DX001 (ip), vehicle: saline 101 % of control

Nc1ncnc2c1nnn2Cc1ccco1
inactive: dose: 12.5 mg/kg/injection, schedule: Q01DX005 (ip), vehicle: other 96 % of control | dose: 25.0 mg/kg/injection, schedule: Q01DX005 (ip), vehicle: other 89 % of control | dose: 50.0 mg/kg/injection, schedule: Q01DX005 (ip), vehicle: other 89 % of control | dose: 100.0 mg/kg/injection, schedule: Q01DX005 (ip), vehicle: other 93 % of control | dose: 200.0 mg/kg/injection, schedule: Q01DX005 (ip), vehicle: other 96 % of control

O=C(O)c1ccc([N+](=O)[O-])nc1
inactive: [4] 91 % of control | [5] 95 % of control | [6] 93 % of control

CC(CCCOS(C)(=O)=O)OS(C)(=O)=O (stereo not given)
inactive: dose: 25.0 mg/kg/injection, schedule: Q04DX002 (ip), vehicle: Klucel (hydroxypropylcellulose) (HPC) 105 % of control | dose: 50.0 mg/kg/injection, schedule: Q04DX002 (ip), vehicle: Klucel (hydroxypropylcellulose) (HPC) 108 % of control | dose: 100.0 mg/kg/injection, schedule: Q04DX002 (ip), vehicle: Klucel (hydroxypropylcellulose) (HPC) 94 % of control

COC(=O)C#CBr
inactive: dose: 6.25 mg/kg/injection, schedule: Q04DX003 (ip), vehicle: other 103 % of control | dose: 12.5 mg/kg/injection, schedule: Q04DX003 (ip), vehicle: other 96 % of control

CN1CCCN(C)C1c1cc([N+](=O)[O-])ccc1O
inactive: dose: 6.25 mg/kg/injection, schedule: Q01DX009 (ip), vehicle: saline sonified 100 % of control | dose: 6.25 mg/kg/injection, schedule: Q04DX003 (ip), vehicle: saline sonified 106 % of control | dose: 12.5 mg/kg/injection, schedule: Q01DX009 (ip), vehicle: saline sonified 98 % of control | dose: 12.5 mg/kg/injection, schedule: Q04DX003 (ip), vehicle: saline sonified 101 % of control | dose: 25.0 mg/kg/injection, schedule: Q01DX009 (ip), vehicle: saline sonified 89 % of control | dose: 25.0 mg/kg/injection, schedule: Q04DX003 (ip), vehicle: saline sonified 98 % of control

COC(=O)/N=C(/N)SC
inactive: [7] 100 % of control | [8] 106 % of control | [9] 97 % of control

CC(=O)OC1CC2C=CCC21 (stereo not given)
inactive: [4] 100 % of control | [5] 96 % of control | [6] 96 % of control

CC(C)NCC(O)c1ccc(O)c(O)c1 (stereo not given)
inactive: dose: 4.0 mg/kg/injection, schedule: Q01DX009 (ip), vehicle: saline 101 % of control | dose: 8.0 mg/kg/injection, schedule: Q01DX009 (ip), vehicle: saline 107 % of control and 109 % of control | dose: 16.0 mg/kg/injection, schedule: Q01DX001 (ip), vehicle: saline 96 % of control | dose: 16.0 mg/kg/injection, schedule: Q01DX009 (ip), vehicle: saline 107 % of control and 113 % of control | dose: 32.0 mg/kg/injection, schedule: Q01DX001 (ip), vehicle: saline 100 % of control | dose: 32.0 mg/kg/injection, schedule: Q01DX009 (ip), vehicle: saline 104 % of control and 107 % of control | dose: 50.0 mg/kg/injection, schedule: Q01DX001 (ip), vehicle: saline 95 % of control | dose: 64.0 mg/kg/injection, schedule: Q01DX001 (ip), vehicle: saline 98 % of control and 102 % of control | dose: 64.0 mg/kg/injection, schedule: Q01DX009 (ip), vehicle: saline 121 % of control | dose: 100.0 mg/kg/injection, schedule: Q01DX001 (ip), vehicle: saline 104 % of control | dose: 100.0 mg/kg/injection, schedule: Q01DX009 (ip), vehicle: saline 108 % of control | dose: 128.0 mg/kg/injection, schedule: Q01DX001 (ip), vehicle: saline 100 % of control and 105 % of control | dose: 178.0 mg/kg/injection, schedule: Q01DX009 (ip), vehicle: saline 112 % of control | dose: 200.0 mg/kg/injection, schedule: Q01DX001 (ip), vehicle: saline 104 % of control | dose: 200.0 mg/kg/injection, schedule: Q01DX009 (ip), vehicle: saline 111 % of control | dose: 256.0 mg/kg/injection, schedule: Q01DX001 (ip), vehicle: other 102 % of control | dose: 256.0 mg/kg/injection, schedule: Q01DX001 (ip), vehicle: saline 105 % of control | dose: 266.0 mg/kg/injection, schedule: Q01DX009 (ip), vehicle: saline 120 % of control | dose: 400.0 mg/kg/injection, schedule: Q01DX001 (ip), vehicle: saline 110 % of control | dose: 400.0 mg/kg/injection, schedule: Q01DX009 (ip), vehicle: saline 122 % of control | dose: 600.0 mg/kg/injection, schedule: Q01DX009 (ip), vehicle: saline 112 % of control

COc1cc2c(c(OC)c1OC)-c1ccc(SC)c(=O)cc1[C@@H](NC(C)=O)CC2
inactive: dose: 0.2 mg/kg/injection, schedule: Q01DX009 (ip), vehicle: Klucel (hydroxypropylcellulose) (HPC) 86 % of control | dose: 0.75 mg/kg/injection, schedule: Q04DX002 (ip), vehicle: Klucel (hydroxypropylcellulose) (HPC) 121 % of control | dose: 3.0 mg/kg/injection, schedule: Q04DX002 (ip), vehicle: Klucel (hydroxypropylcellulose) (HPC) 118 % of control and 95 % of control | dose: 6.0 mg/kg/injection, schedule: Q04DX002 (ip), vehicle: Klucel (hydroxypropylcellulose) (HPC) 97 % of control

Cc1ccc(NC(=O)c2ccccc2C(=O)O)c(C)c1
inactive: [1] 109 % of control | [7] 95 % of control | [2] 96 % of control | [8] 109 % of control | [3] 115 % of control | [9] 103 % of control

OC(c1ccccc1)(c1ccccc1)c1ccc(Cl)cc1
inactive: [1] 97 % of control | [2] 101 % of control | [3] 101 % of control

CCOC(=O)c1cc(C)[nH]c(=O)c1C#N
inactive: dose: 25.0 mg/kg/injection, schedule: Q01DX009 (ip), vehicle: saline with Tween-80 93 % of control | dose: 25.0 mg/kg/injection, schedule: Q04DX003 (ip), vehicle: saline with Tween-80 102 % of control | dose: 50.0 mg/kg/injection, schedule: Q01DX009 (ip), vehicle: saline with Tween-80 96 % of control | dose: 50.0 mg/kg/injection, schedule: Q04DX003 (ip), vehicle: saline with Tween-80 102 % of control | [1] 93 % of control | [7] 98 % of control

O=NN(CCCl)C(=O)Nc1cc2c3ccccc3ccc2c2ccccc12
inactive: dose: 177.0 mg/kg/injection, schedule: Q01DX009 (ip), vehicle: saline with Tween-80 102 % of control | dose: 265.0 mg/kg/injection, schedule: Q01DX009 (ip), vehicle: saline with Tween-80 98 % of control | [3] 102 % of control | dose: 600.0 mg/kg/injection, schedule: Q01DX009 (ip), vehicle: saline with Tween-80 89 % of control
